Laboratory results published in PMC10818329, “An Ultra-Performance Liquid Chromatography–Tandem Mass Spectrometry (UPLC–MS/MS) Method for Qualifying DAPB in Rat Plasma and Application to Pharmacokinetic Studies” (Molecules, 2024).

Columns and labels:
[1] = Pharmacokinetic study of DAPB in rats (plasma, UPLC–MS/MS); assay type: in vivo, Sprague–Dawley (SD) rats
Description: Sprague–Dawley (SD) rats (180–200 g) were purchased from the Experimental Animal Center of Xi’an Jiaotong University (permit number SCXK 2017–003) and housed under controlled conditions (25 °C, 50 ± 5% humidity, and 12 h dark–light cycles). The animal protocol was approved by the Animal Ethics Committee of Xi’an Medical College. […] For the intravenous administration group, DAPB prepared in saline containing 5% DMSO was injected in the tail vein at a dose of 6 mg/kg. For the oral administration group, rats were given DAPB dissolved in 10% (2-hydroxypropyl)-β-cyclodextrin in water (10% HP-β-CD solution) containing 20% PEG200 and 20% propylene glycol at a dose of 30 mg/kg orally. Blood samples were collected in heparinized tubes pretreated with NaF via the ophthalmic venous plexus before and at 0.083, 0.17, 0.25, 0.50, 1.00, 2.00, 4.00, and 8.00 h after dosing. After centrifugation, the supernatant plasma was obtained and stored at −80 °C for further treatment. For the preparation of the plasma samples, 10 μL of the IS working solution (1 μg/mL), 1 μL of NaF (5 mg/mL), and 290 μL of acetonitrile were added to 100 μL of the plasma samples. Subsequently, the mixed plasma samples were centrifuged twice at 16,000× g for 5 min at 4 °C after vortexing for 30 s. For analysis, 10 μL of the supernatant was injected into the UPLC–MS/MS apparatus.

[2] = Stability of DAPB in rat plasma (NaF added); assay type: in vitro ADME; conditions: for Stability RE (%): n = 6
Description: Esterase widely exists in the blood, serum, and plasma of organisms. Therefore, DAPB may be unstable and easily hydrolyzed by plasma esterases owning to the ester group. In the method-development process, the stability of DAPB in whole blood and plasma was tested in detail. Low temperature is an important factor for maintaining the stability of the analyte; therefore, in our study, an ice-water bath was used to provide cooling conditions. Sodium fluoride (NaF), a typical esterase inhibitor, was pre-added in the collected blood samples to prevent the hydrolysis of DAPB. In the plasma with NaF added, DAPB was stable after being placed at room temperature for 4 h, −80 °C for 30 days, and then subject to three freeze/thaw cycles. In addition, the post-preparative plasma sample stored in an autosampler for 24 h remained stable.
The stability of DAPB in rat plasma was assessed by using QC samples at three concentrations in six replicates following three freeze/thaw cycles, short-term storage (room temperature for […]), long-term storage (−80 °C for 30 consecutive days), and autosampler rack storage (4 °C for 24 h). In freeze/thaw cycle tests, the QC samples were frozen and stored at −80 °C and then thawed at room temperature; this was repeated three times. The values of stability were calculated by comparing the concentrations of the QC samples following each storage period with the concentrations of the freshly prepared QC samples in the same analytical run.

[3] = test system: SHR rats; parameters: method as in PMID 37446639; conditions: cited from earlier work
[4] = Sprague-Dawley, rat plasma, intravenous administration at 6 mg/kg, mean ± SD (n = 6)
[5] = Sprague-Dawley, rat plasma, oral administration at 30 mg/kg, mean ± SD (n = 6)
[6] = rat plasma, oral administration at 30 mg/kg, mean ± SD (n = 6)

## C[C@@H](NC(=O)C(O)Cc1ccc(O)c(O)c1)C(=O)N1CCC[C@H]1C(=O)OC1CC2CCC1(C)C2(C)C (stereo partly drawn) [DAPB, (2R)-3-(3,4-dihydroxyphenyl)-2-hydroxypropionyl-L-alanyl-L-proline bornyl ester]
[1]; Sprague-Dawley, plasma, rat, oral 30 mg/kg vs intravenous 6 mg/kg
  bioavailability: 78.2%
[1]; [4]
  AUC(0-inf): 13.8 ± 2.1 ng·h/mL
  AUC(0-t): 11.8 ± 1.66 ng·h/mL
  half-life: 11.4 ± 0.6 min
[1]; Sprague-Dawley, rat plasma, intravenous administration at 6 mg/kg, mean ± SD (n = 6), read-out: Vss
  Vd: 910 ± 24.4 L/kg
[1]; [5]
  AUC(0-inf): 53.9 ± 8.34 ng·h/mL
  AUC(0-t): 49.6 ± 7.92 ng·h/mL
  Cmax: 33.2 ± 10.9 ng/mL
  Tmax: 14.7 min
  half-life: 97.8 ± 21.6 min
[1]; [6]
  CL: 89,992.36 ± 10,292.61 mL/h/kg
  Vss: 264.73 ± 65.86 L/kg
[2]; post-preparative rat plasma sample, autosampler rack (4 °C) for 24 h, spiked conc. 5 ng/mL
  Stability RE (%): −11.6%
[2]; post-preparative rat plasma sample, autosampler rack (4 °C) for 24 h, spiked conc. 500 ng/mL
  Stability RE (%): −7.4%
[2]; post-preparative rat plasma sample, autosampler rack (4 °C) for 24 h, spiked conc. 1000 ng/mL
  Stability RE (%): −3.4%
[2]; rat plasma, room temperature for 2 h, spiked conc. 5 ng/mL
  Stability RE (%): −10.2%
[2]; rat plasma, room temperature for 2 h, spiked conc. 500 ng/mL
  Stability RE (%): −7.5%
[2]; rat plasma, room temperature for 2 h, spiked conc. 1000 ng/mL
  Stability RE (%): 1.2%
[2]; rat plasma, three freeze/thaw cycles, spiked conc. 5 ng/mL
  Stability RE (%): −6.4%
[2]; rat plasma, three freeze/thaw cycles, spiked conc. 500 ng/mL
  Stability RE (%): 2.6%
[2]; rat plasma, three freeze/thaw cycles, spiked conc. 1000 ng/mL
  Stability RE (%): −2.0%
[2]; rat plasma, −80 °C for 30 days, spiked conc. 5 ng/mL
  Stability RE (%): 5.3%
[2]; rat plasma, −80 °C for 30 days, spiked conc. 500 ng/mL
  Stability RE (%): −6.2%
[2]; rat plasma, −80 °C for 30 days, spiked conc. 1000 ng/mL
  Stability RE (%): −4.6%
[2]; room temperature for 4 h, −80 °C for 30 days, three freeze/thaw cycles
  Stability in plasma with NaF added (in words): stable
[3]
  Decrease of diastolic blood pressure (DBP): 35 mmHg
  Decrease of systolic blood pressure (SBP): 50 mmHg
